The CheMixHub viscosity set
“And” between values parts separate entries of the source, which are not always exact repeats. Equal entries are not always repeated. ± gives the uncertainty stated by the source.

Assay: xn = mol fraction of the nth substance listed

C[N+](C)(C)CCO.[Cl-] + OCCO
Conditions	viscosity
293.15 K, 100 kPa, x1 = 0.333	40.01 ± 0.53 mPa·s
293.15 K, 100 kPa, x1 = 0.34	59.14 ± 2.4 mPa·s
293.15 K, 101 kPa, x1 = 0.333	42.3 ± 3.4 mPa·s
293.15 K, 101 kPa, x2 = 0.7	56.22 ± 1.2 mPa·s
293.15 K, 101.3 kPa, x2 = 0.6675	60 ± 2.5 mPa·s
293.15 K, 101.3 kPa, x2 = 0.7	53.07 ± 0.32 mPa·s
293.15 K, 101.3 kPa, x2 = 0.7499	37.35 ± 1.6 mPa·s
293.15 K, 101.3 kPa, x2 = 0.7999	31.8 ± 1.3 mPa·s
293.15 K, 101.3 kPa, x2 = 0.8332	28.49 ± 1.2 mPa·s
293.15 K, 101.3 kPa, x2 = 0.8571	25.56 ± 1.1 mPa·s
298 K, 100 kPa, x1 = 0.333	45.1 ± 3.7 mPa·s
298 K, 101 kPa, x1 = 0.333	42 ± 3 mPa·s
298.15 K, 100 kPa, x1 = 0.333	41 ± 1 mPa·s and 32.73 ± 0.44 mPa·s
298.15 K, 100 kPa, x1 = 0.34	47.74 ± 1.9 mPa·s
298.15 K, 101 kPa, x1 = 0.2	20.1 ± 0.8 mPa·s
298.15 K, 101 kPa, x1 = 0.333	35.1 ± 1.4 mPa·s
298.15 K, 101.1 kPa, x1 = 0.333	39.45 ± 8.3 mPa·s
298.15 K, 101.3 kPa, x2 = 0.6675	48.59 ± 2 mPa·s
298.15 K, 101.3 kPa, x2 = 0.7	43.03 ± 0.49 mPa·s
298.15 K, 101.3 kPa, x2 = 0.7499	31.12 ± 1.3 mPa·s
298.15 K, 101.3 kPa, x2 = 0.7999	26.21 ± 1.1 mPa·s
298.15 K, 101.3 kPa, x2 = 0.8332	23.36 ± 0.97 mPa·s
298.15 K, 101.3 kPa, x2 = 0.8571	20.93 ± 0.87 mPa·s
298.15 K, 101.33 kPa, x2 = 0.7	48 ± 5 mPa·s
298.2 K, 101.3 kPa, x1 = 0.1247	20.5 ± 0.8 mPa·s
298.2 K, 101.3 kPa, x1 = 0.1675	23.2 ± 0.9 mPa·s
298.2 K, 101.3 kPa, x1 = 0.2	24.5 ± 1 mPa·s
298.2 K, 101.3 kPa, x1 = 0.2513	27.2 ± 1.1 mPa·s
303 K, 100 kPa, x1 = 0.333	36.8 ± 3 mPa·s
303 K, 101 kPa, x1 = 0.3333	51.8 ± 1.5 mPa·s
303.15 K, 100 kPa, x1 = 0.333	27.13 ± 0.36 mPa·s and 52.15 ± 2.1 mPa·s
303.15 K, 100 kPa, x1 = 0.34	39.1 ± 1.6 mPa·s
303.15 K, 101 kPa, x1 = 0.333	33.1 ± 2.7 mPa·s
303.15 K, 101 kPa, x2 = 0.7	35 ± 10 mPa·s and 37.15 ± 0.78 mPa·s
303.15 K, 101.3 kPa, x2 = 0.6675	39.78 ± 1.7 mPa·s
303.15 K, 101.3 kPa, x2 = 0.7	35.06 ± 0.4 mPa·s
303.15 K, 101.3 kPa, x2 = 0.7499	25.72 ± 1.1 mPa·s
303.15 K, 101.3 kPa, x2 = 0.7999	21.7 ± 0.9 mPa·s
303.15 K, 101.3 kPa, x2 = 0.8332	19.36 ± 0.8 mPa·s
303.15 K, 101.3 kPa, x2 = 0.8571	17.34 ± 0.72 mPa·s
308 K, 100 kPa, x1 = 0.333	30.8 ± 2.5 mPa·s
308 K, 101 kPa, x1 = 0.3333	45.7 ± 1 mPa·s
308.15 K, 100 kPa, x1 = 0.333	22.76 ± 0.3 mPa·s
308.15 K, 100 kPa, x1 = 0.34	32.42 ± 1.3 mPa·s
308.15 K, 101 kPa, x1 = 0.3333	30.9 ± 1 mPa·s
308.15 K, 101.3 kPa, x2 = 0.6675	33.15 ± 1.4 mPa·s
308.15 K, 101.3 kPa, x2 = 0.7	29.02 ± 0.33 mPa·s
308.15 K, 101.3 kPa, x2 = 0.7499	21.63 ± 0.91 mPa·s
308.15 K, 101.3 kPa, x2 = 0.7999	18.29 ± 0.75 mPa·s
308.15 K, 101.3 kPa, x2 = 0.8332	16.22 ± 0.67 mPa·s
308.15 K, 101.3 kPa, x2 = 0.8571	14.52 ± 0.6 mPa·s
308.2 K, 101.3 kPa, x1 = 0.1247	15.3 ± 0.6 mPa·s
308.2 K, 101.3 kPa, x1 = 0.1675	17.4 ± 0.7 mPa·s
308.2 K, 101.3 kPa, x1 = 0.2	18.6 ± 0.8 mPa·s
308.2 K, 101.3 kPa, x1 = 0.2513	20.7 ± 0.8 mPa·s
313 K, 100 kPa, x1 = 0.333	26 ± 2.1 mPa·s
313 K, 101 kPa, x1 = 0.333	23 ± 2 mPa·s
313 K, 101 kPa, x1 = 0.3333	40.7 ± 0.9 mPa·s
313.15 K, 100 kPa, x1 = 0.333	19.32 ± 0.26 mPa·s and 41.27 ± 1.7 mPa·s
313.15 K, 100 kPa, x1 = 0.34	27.44 ± 1.1 mPa·s
313.15 K, 101 kPa, x1 = 0.333	26.3 ± 2.1 mPa·s
313.15 K, 101 kPa, x1 = 0.3333	25.8 ± 0.8 mPa·s
313.15 K, 101 kPa, x2 = 0.7	25.84 ± 0.53 mPa·s
313.15 K, 101.3 kPa, x2 = 0.6675	27.77 ± 1.2 mPa·s
313.15 K, 101.3 kPa, x2 = 0.7	24.22 ± 0.27 mPa·s
313.15 K, 101.3 kPa, x2 = 0.7499	18.27 ± 0.77 mPa·s
313.15 K, 101.3 kPa, x2 = 0.7999	15.52 ± 0.64 mPa·s
313.15 K, 101.3 kPa, x2 = 0.8332	13.72 ± 0.57 mPa·s
313.15 K, 101.3 kPa, x2 = 0.8571	12.3 ± 0.51 mPa·s
318 K, 100 kPa, x1 = 0.333	21.6 ± 1.7 mPa·s
318 K, 101 kPa, x1 = 0.3333	36.4 ± 0.8 mPa·s
318.15 K, 100 kPa, x1 = 0.333	16.57 ± 0.22 mPa·s
318.15 K, 100 kPa, x1 = 0.34	23.03 ± 0.93 mPa·s
318.15 K, 101 kPa, x1 = 0.2	10.5 ± 0.4 mPa·s
318.15 K, 101 kPa, x1 = 0.333	15.6 ± 0.7 mPa·s
318.15 K, 101 kPa, x1 = 0.3333	21.9 ± 0.7 mPa·s
318.15 K, 101.3 kPa, x2 = 0.6675	23.61 ± 0.98 mPa·s
318.15 K, 101.3 kPa, x2 = 0.7	20.47 ± 0.23 mPa·s
318.15 K, 101.3 kPa, x2 = 0.7499	15.68 ± 0.66 mPa·s
318.15 K, 101.3 kPa, x2 = 0.7999	13.3 ± 0.55 mPa·s
318.15 K, 101.3 kPa, x2 = 0.8332	11.67 ± 0.48 mPa·s
318.15 K, 101.3 kPa, x2 = 0.8571	10.51 ± 0.44 mPa·s
318.2 K, 101.3 kPa, x1 = 0.1247	11.4 ± 0.5 mPa·s
318.2 K, 101.3 kPa, x1 = 0.1675	13.1 ± 0.5 mPa·s
318.2 K, 101.3 kPa, x1 = 0.2	14.2 ± 0.6 mPa·s
318.2 K, 101.3 kPa, x1 = 0.2513	16.3 ± 0.7 mPa·s
323 K, 100 kPa, x1 = 0.333	18.8 ± 1.5 mPa·s
323 K, 101 kPa, x1 = 0.333	16 ± 1 mPa·s
323 K, 101 kPa, x1 = 0.3333	32.8 ± 0.7 mPa·s
323.15 K, 100 kPa, x1 = 0.333	14.33 ± 0.19 mPa·s and 33.33 ± 1.4 mPa·s
323.15 K, 101 kPa, x1 = 0.333	21.2 ± 1.7 mPa·s
323.15 K, 101 kPa, x1 = 0.3333	18.8 ± 0.6 mPa·s
323.15 K, 101.3 kPa, x2 = 0.6675	20.3 ± 0.84 mPa·s
323.15 K, 101.3 kPa, x2 = 0.7	17.41 ± 0.2 mPa·s
323.15 K, 101.3 kPa, x2 = 0.7499	13.57 ± 0.57 mPa·s
323.15 K, 101.3 kPa, x2 = 0.7999	11.5 ± 0.48 mPa·s
323.15 K, 101.3 kPa, x2 = 0.8332	9.98 ± 0.41 mPa·s
323.15 K, 101.3 kPa, x2 = 0.8571	9.07 ± 0.38 mPa·s
